From the NIST ThermoML archive (doi:10.1021/je700339f)

Experiment: xn = mol fraction of the nth substance listed
Conditions: 298 K, Liquid

ClCCCCCl [1,4-dichlorobutane] + CC(=O)N(C)C
mass density [kg/m3]
Conditions	x2 = 0.0975	x2 = 0.2001	x2 = 0.2996	x2 = 0.4017	x2 = 0.5009	x2 = 0.5981	x2 = 0.6987	x2 = 0.801	x2 = 0.9012
100 kPa	1116.3	1097.8	1079.3	1060	1040.7	1021.7	1001.1	980	958.6
500 kPa	1116.6	1098.2	1079.6	1060.3	1041	1022	1001.3	980.3	958.8
1000 kPa	1117	1098.6	1080	1060.6	1041.4	1022.3	1001.7	980.6	959.2
1500 kPa	1117.4	1098.9	1080.3	1061	1041.7	1022.7	1002	980.8	959.5
2000 kPa	1117.7	1099.3	1080.7	1061.3	1042	1023	1002.3	981.2	959.8
2500 kPa	1118.1	1099.6	1081	1061.7	1042.4	1023.3	1002.8	981.6	960.1
3000 kPa	1118.5	1100.1	1081.4	1062.1	1042.7	1023.7	1003.1	982	960.4
3500 kPa	1118.9	1100.4	1081.8	1062.4	1043.1	1024	1003.4	982.2	960.7
4000 kPa	1119.3	1100.8	1082.1	1062.8	1043.4	1024.4	1003.7	982.6	961
4500 kPa	1119.6	1101.2	1082.5	1063.2	1043.7	1024.8	1004	982.9	961.3
5000 kPa	1120	1101.5	1082.8	1063.4	1044.1	1025	1004.4	983.2	961.6
5500 kPa	1120.4	1101.9	1083.2	1063.8	1044.5	1025.4	1004.7	983.4	961.9
6000 kPa	1120.7	1102.2	1083.6	1064.2	1044.9	1025.6	1005	983.8	962.2
6500 kPa	1121.1	1102.6	1083.9	1064.5	1045.2	1026	1005.3	984.1	962.6
7000 kPa	1121.5	1102.9	1084.3	1064.9	1045.5	1026.4	1005.7	984.4	962.9
7500 kPa	1121.9	1103.2	1084.6	1065.2	1045.8	1026.7	1006	984.8	963.1
8000 kPa	1122.2	1103.6	1085	1065.5	1046.2	1027	1006.3	985	963.5
8500 kPa	1122.5	1104	1085.4	1065.9	1046.6	1027.3	1006.6	985.4	963.7
9000 kPa	1123	1104.3	1085.7	1066.2	1046.9	1027.7	1007	985.6	964
9500 kPa	1123.2	1104.7	1086	1066.6	1047.2	1028	1007.3	986	964.3
10000 kPa	1123.7	1105.2	1086.4	1067	1047.6	1028.5	1007.6	986.3	964.7
10500 kPa	1124.1	1105.5	1086.8	1067.3	1047.9	1028.8	1008	986.7	965
11000 kPa	1124.4	1105.8	1087.2	1067.6	1048.2	1029.1	1008.3	986.9	965.2
11500 kPa	1124.7	1106.2	1087.5	1068	1048.6	1029.5	1008.6	987.3	965.6
11900 kPa	–	–	–	–	–	–	–	987.6	–
12000 kPa	1125.1	1106.6	1087.8	1068.3	1048.9	1029.8	1008.9	–	965.9
12500 kPa	1125.5	1106.8	1088.2	1068.7	1049.2	1030.1	1009.3	987.9	966.3
13000 kPa	1125.8	1107.2	1088.5	1069	1049.6	1030.4	1009.6	988.2	966.5
13400 kPa	–	–	–	1069.3	1049.9	–	–	–	–
13500 kPa	1126.1	1107.6	1088.9	–	–	1030.7	1009.9	988.5	966.8
14000 kPa	1126.5	1107.9	1089.1	1069.7	1050.3	1031	1010.2	988.8	967.1
14500 kPa	1126.8	1108.2	1089.5	1070	1050.6	1031.4	1010.5	989.1	967.4
15000 kPa	1127.2	1108.6	1089.9	1070.3	1050.9	1031.6	1010.8	989.4	967.7
15500 kPa	1127.6	1108.9	1090.2	1070.6	1051.2	1032	1011.1	989.7	968
16000 kPa	1127.9	1109.3	1090.5	1071	1051.5	1032.3	1011.4	990	968.2
16400 kPa	1128.2	–	–	–	1051.8	–	–	–	–
16500 kPa	–	1109.6	1090.9	1071.4	–	1032.6	1011.7	990.2	968.5
17000 kPa	1128.6	1109.9	1091.2	1071.6	1052.1	1032.9	1012	990.5	968.7
17500 kPa	1129	1110.3	1091.6	1072	1052.4	1033.2	1012.4	990.8	969.1
17900 kPa	–	–	–	–	1052.7	–	–	–	–
18000 kPa	1129.3	1110.6	1091.8	1072.3	–	1033.5	1012.7	991.1	969.3
18500 kPa	1129.6	1110.9	1092.2	1072.6	1053.1	1033.8	1013	991.4	969.6
19000 kPa	1130	1111.3	1092.5	1073	1053.5	1034.2	1013.3	991.8	969.9
19500 kPa	1130.3	1111.7	1092.8	1073.3	1053.8	1034.5	1013.6	992	970.1
20000 kPa	1130.8	1112	1093.3	1073.8	1054.1	1034.8	1014	992.4	970.5
